# Assay results from patent US20060079512A1, “Dibenzodiazepinone analogues, processes for their production and their use as pharmaceuticals” (Ecopia BioSciences, Inc., priority 2003, published 2006).
# “Also recorded” adds a separate entry of the source.
# Columns and labels:
# C6 glioblastoma [1] = experiment: In vivo efficacy in glioma model, second series (treatment started at day 10); design: species or system Mus musculus nude mice; conditions: for Tumor volume (mm^3) (mean ± SEM): Q1 × 5; for % Inhibition: Q1 × 5, vs saline
# Protocol: (§1) Animal experiments were performed according to ethical guidelines of animal experimentation (Charte du comité d'éthique du CNRS, juillet 2003) and the English guidelines for the welfare of animals in experimental neoplasia (WORKMAN, P., […], P., BALKWILL, F., et al. (1998). United Kingdom Coordinating Committee on Cancer Research (UKCCCR) Guidelines for the welfare of animals in experimental neoplasia (Second Edition, July 1997; British Journal of Cancer, 77:1-10). Any dead or apparently sick mice were promptly removed and replaced with healthy mice. Sick mice were euthanized upon removal from the cage. Animals were maintained in rooms under controlled conditions of temperature (23±2° C.), humidity (45±5%), photoperiodicity (12 hrs light/12 hrs dark) and air exchange. Animals were housed in polycarbonate cages (5/single cage) that were equipped to provide food and water. Animal bedding consisted of sterile wood shavings that were replaced every other day. Food was provided ad libitum, being placed in the metal lid on the top of the cage. Autoclaved tap water was provided ad libitum. Water bottles were equipped with rubber stoppers and sipper tubes. Water bottles were cleaned, sterilized and replaced once a week. Two different numbers engraved on two earrings identified the animals. Each cage was labeled with a specific code.
# (§2) Tumor Cell Line: The C6 cell line was cloned from a rat glial tumor induced by N-nitrosomethyurea (NMU) according to Premont et al. (Premont J, Benda P, Jard S., [3H] norepinephrine binding by rat glial cells in culture. Lack of correlation between binding and adenylate cyclase activation. Biochim Biophys Acta. 1975 Feb. 13;381(2):368-76.) after series of alternate culture and animal passages. Cells were grown as adherent monolayers at 37° C. in a humidified atmosphere (5% CO2, 95% air). The culture medium was DMEM supplemented with 2 mM L-glutamine and 10% fetal bovine serum. For experimental use, tumor cells were detached from the culture flask by a 10 min treatment with trypsin-versen. The cells were counted in a hemocytometer and their viability assessed by 0.25% trypan blue exclusion.
# (§3) Preparation of the Test Article: For the test article, the following procedure was followed for reconstitution (performed immediately preceding injection). The vehicle consisted of a mixture of benzyl alcohol (1.5%), ethanol (8.5%), propylene glycol (27%), PEG 400 (27%), dimethylacetamide (6%) and water (30%). The vehicle solution was first vortexed in order to obtain a homogeneous liquid. 0.6 mL of the vortexed vehicle solution was added to each vial containing the test article (Compound 1). Vials were mixed thoroughly by vortexing for 1 minute and inverted and shaken vigorously. Vials were mixed again prior to injection into each animal.
# (§4) Animal Inoculation with tumor cells: Experiment started at day 0 (D0). On D0, mice received a superficial intramuscular injection of C6 tumor cells (5×10^5 cells) in 0.1 mL of DMEM complete medium into the upper right posterior leg.
# In a second series of experiments, treatment started at day 10 following inoculation of C6 cells when tumors became palpable (around 100 to 200 mm^3). Treatment was repeated daily for 5 consecutive days. On the day of the treatment, each mouse was slowly injected with 100 μL of Compound 1 by i.p. route. Mice of group 1 were treated daily with saline isosmotic solution. Mice of group 2 were treated daily with the vehicle solution. Mice of group 3 were treated daily with 20 mg/kg of Compound 1. Mice of group 4 were treated daily with 30 mg/kg of Compound 1. Mice were treated until the tumor volume of the saline-treated control mice (group 1) reached around 4 cm^3. Tumor volume was measured every second day until the end of the treatment using callipers. […] An asterisk in the P value column of Table 20 indicates a statistically significant value, while “ns” signifies not significant.
# C6 glioblastoma [2] = experiment: In vivo efficacy in glioma model, first series (treatment started 24 hrs after inoculation); design: species or system Mus musculus nude mice
# Protocol: The aim of this study was to test whether Compound 1 administered by the i.p. route prevents or delays tumor growth in C6 glioblastoma cell-bearing mice, and to determine an effective dosage regimen.
# as §1, §2, §3, §4
# In a first series of experiments, treatment started 24 hrs following inoculation of C6 cells. On the day of the treatment, each mouse was slowly injected with 100 μL of test or control articles by the i.p. route. For all groups, treatment was performed until the tumor volume of the saline-treated mice (group 1) reached approximately 3 cm^3 (around day 16). Mice of group 1 were treated daily with a saline isosmotic solution for 16 days. Mice of group 2 were treated daily with the vehicle solution for 16 days. Mice of group 3 were treated daily with 10 mg/kg of Compound 1 for 16 days. Mice of group 4 were treated every two days with 30 mg/kg of Compound 1 and received 8 treatments. […]
# [3] = test system: MDA-MB-231 (mammary gland adenocarcinoma); experiment: In vitro cytotoxic activity (GI50), method (a), propidium iodide; format: cell-based; conditions: Homo sapiens, MDA-MB-231; method (a), 96 hours; read-out: MDA-MB-231 (GI50 μM)
# Protocol: (§5) Compounds were dissolved at 10 mM in DMSO. Dilution in vehicle to concentrations of 30, 10, 3, 1 and 0.3 μM were prepared immediately before assays. Depending on the cell line's growth characteristics, 4000-10000 cells were plated in two 96-wells pates (day 0) and incubated for 16 hours. The following day, propidium iodide was added to one of the two plates and fluorescence measured (Tz). Test compounds were added to the second plate, as well as vehicle control, and cells further incubated for 96 hours. Each compound was tested at each concentration and in triplicates. The equivalent cell number was determined after adding propidium iodide by measuring the signal by fluorescence (C for control).
# SF268 (CNS) = experiment: as above; format: cell-based; conditions: Homo sapiens, SF-268; method (a), 96 hours; read-out: SF-268 (GI50 μM)
# Protocol: as §5
# [4] = test system: PC-3 (prostate adenocarcinoma); experiment: as above; format: cell-based; conditions: method (a), 96 hours; read-out: PC-3 (GI50 μM)
# Protocol: as §5
# [5] = test system: HT-29 (colorectal carcinoma); experiment: as above; format: cell-based; conditions: Homo sapiens, HT-29; method (a), 96 hours; read-out: HT-29 (GI50 μM)
# Protocol: as §5
structure (smiles),measurement,setting,value
"CC(C)=CCC/C(C)=C/CC/C(C)=C/CN1C(=O)c2cccc(O)c2N(C)c2c(O)cc(O)cc21 [Compound 2, 10-farnesyl-4,6,8-trihydroxy-5-methyl-5,10-dihydro-dibenzo[b,e][1,4]diazepin-11-one]",NOAEL,"in vivo; CD-1 nu/nu, mouse, in vivo, ip",30 mg/kg
same,NOAEL,"in vivo; CD-1 nu/nu, mouse, in vivo, iv",75 mg/kg
same,MTD,"in vivo; CD-1 nu/nu, mouse, in vivo, ip, acute",≥ 50 mg/kg
same,weight losses,in vivo; for several days post-injection,about 7%
"CC(C)=CCC/C(C)=C/CC/C(C)=C/CN1C(=O)c2cccc(O)c2Nc2c(O)cc(O)cc21 [Compound 1, 10-farnesyl-4,6,8-trihydroxy-5,10-dihydrodibenzo[b,e][1,4]diazepin-11-one]",Tumor volume (mm^3) (mean ± SEM),C6 glioblastoma [1]; 20 mg/kg i.p.,"1,721.5 ± 374.79 mm^3"
same,% Inhibition,C6 glioblastoma [1]; 20 mg/kg i.p.,60.5%
same,Tumor volume (mm^3) (mean ± SEM),C6 glioblastoma [1]; 30 mg/kg i.p.,"1,131.6 ± 525.21 mm^3"
same,% Inhibition,C6 glioblastoma [1]; 30 mg/kg i.p.,74.1%
same,Histological analysis of tumor sections,C6 glioblastoma [1]; 20-30 mg/kg,cell density of tumor treated with Compound 1 appears decreased; also recorded: cell density was decreased and the nuclei of remaining tumor cells appeared larger and pycnotic
same,mean value of the tumor volume of all treated groups,"C6 glioblastoma [1]; 20-30 mg/kg i.p., compared to the saline group",significantly reduced
same,Tumor volume (mm^3) (mean ± SEM),"C6 glioblastoma [2]; 10 mg/kg i.p., Q1 × 16","1,220.4 ± 283.46 mm^3"
same,% Inhibition,"C6 glioblastoma [2]; 10 mg/kg i.p., Q1 × 16, vs saline",59.4%
same,Tumor volume (mm^3) (mean ± SEM),"C6 glioblastoma [2]; 30 mg/kg i.p., Q2 × 8","1,236.9 ± 233.99 mm^3"
same,% Inhibition,"C6 glioblastoma [2]; 30 mg/kg i.p., Q2 × 8, vs saline",58.8%
same,Tumor volume (mm^3) (mean ± SEM),"C6 glioblastoma [2]; 30 mg/kg i.p., Q3 × 6","1,184.1 ± 221.45 mm^3"
same,% Inhibition,"C6 glioblastoma [2]; 30 mg/kg i.p., Q3 × 6, vs saline",60.6%
same,mean value of the tumor volume of all treated groups,"C6 glioblastoma [2]; 10-30 mg/kg i.p., compared to the saline group",significantly reduced
same,GI50,[3],1.79 µM
same,GI50,SF268 (CNS),1.96 µM
same,GI50,[4],1.95 µM
same,GI50,[5],11.2 µM
